US20250212876A1, “METHOD FOR CONTROLLING PLANT DISEASES” (SUMITOMO CHEMICAL COMPANY, LIMITED, priority 2022, published 2025)

Assays:
Format in all cases: cell-based
[1] = system: Barley scald fungus (Rhynchosporium secalis); assay: Test Example 3: control test against barley scald fungus, titer plate growth; conditions: 150 ppm in DMSO, 1 μL + 150 μL PDB broth; 18° C., 7 days; absorbance at 550 nm
Experimental: (§1) The untreated groups in the Test Example 3, the Test Example 5 and the Test Example 6 represents a treated group in which the procedures are carried out under the same conditions as those described in each of Test Examples except that DMSO is dispensed in place of a diluted DMSO solution containing the Present compound. The untreated groups in the Test Example 7 and the Test Example 15 represents a test in which the procedures are carried out under the same conditions as those described in each of the Test Examples except that DMSO is dispensed in place of a diluted DMSO solution containing the present compound. […]
(§2) The present compound 77 was diluted with DMSO so as to contain 150 ppm, and 1 μL of the dilution solutions were dispensed into titer plate (96 well), and thereafter, thereto was then dispensed 150 μL of a potato dextrose broth (PDB broth) to which conidia of Rhynchosporium secalis were inoculated in advance. This plate was cultured at 18° C. for 7 days, thereby allowing Rhynchosporium secalis to undergo proliferation, and the absorbance at 550 nm of each well of the titer plate was then measured to determine a degree of growth of the Rhynchosporium secalis.

[2] = system: Peach scab fungus (Cladosporium carpophilum); assay: Test Example 5: control test against peach scab fungus, titer plate growth; conditions: 150 ppm in DMSO, 1 μL + 150 μL PDB broth; 18° C., 5 days; absorbance at 550 nm
Experimental: as §1
as §2, with “of Cladosporium carpophilum” for “of Rhynchosporium secalis”, “for 5” for “for 7”, “allowing Cladosporium carpophilum” for “allowing Rhynchosporium secalis”, “the Cladosporium carpophilum.” for “the Rhynchosporium secalis.”

[3] = system: Rice brown spot fungus (Cochliobolus miyabeanus); assay: Test Example 6: control test against rice brown spot fungus, titer plate growth; conditions: 150 ppm in DMSO, 1 μL + 150 μL YB liquid medium; 23° C., 3 days; absorbance at 550 nm
Experimental: The untreated groups in the Test Example 3, the Test Example 5 and the Test Example 6 represents a treated group in which the procedures are carried out under the same conditions as those described in each of Test Examples except that DMSO is dispensed in place of a diluted DMSO solution containing the Present compound. The untreated groups in the Test Example 7 and the Test Example 15 represents a test in which the procedures are carried out under the same conditions as those described in each of the Test Examples except that DMSO is dispensed in place of a diluted DMSO solution containing the present compound. Also, the untreated groups in the Test Example 8, the Test Example 9, the Test Example 10 and the Test Example 11 represents a test in which a diluted aqueous solution of the formulation containing the present compound isn't sprayed.
The present compound 77 was diluted with DMSO so as to contain 150 ppm, and 1 μL of the dilution solutions were dispensed into titer plate (96 well), and thereafter, thereto was then dispensed 150 μL of YB liquid medium to which conidia of Cochliobolus miyabeanus were inoculated in advance. This plate was cultured at 23° C. for 3 days, thereby allowing Cochliobolus miyabeanus to undergo proliferation, and the absorbance at 550 nm of each well of the titer plate was then measured to determine a degree of growth of the Cochliobolus miyabeanus.

Measured: growth in the treated well compared to the growth in an untreated well

O=S(=O)(c1cccc(-c2cc(F)c(Cl)c(F)c2)c1)c1ccncn1 [compound 77]
≤ 50%: all assays above
